The record followed here is patent US20110054039A1, “USE OF ALKYL SULFATES OR SULFONATES AGAINST PROPIONIBACTERIUM ACNES” (priority 2008, published 2011).

Holding throughout (type): cell-based
The test system of experiment [1] is Propionibacterium acnes NCTC 737. Nature of the experiment: Disc Diffusion Assay (DDA). To be noted: P. acnes NCTC 737, 200 μg of test compound per disc; for zone of inhibition at 200 µg/disc: Cutibacterium acnes, NCTC737, read-out: DDA (diameter of zone of inhibition). As for the experimental part:
(§1) The test micro-organism represented the cutaneous propionibacteria. […] The propionibacteria are clinically significant due to their involvement in acne. This is a very common, complex and multi-factorial skin disease in which P. acnes and other Propionibacterium spp. […] They are also opportunistic pathogens in compromised hosts.
(§2) The propionibacteria were cultured and maintained on Wilkins-Chalgren Anaerobe Medium (agar and broth) at pH 6.0; all cultures were incubated anaerobically at 37° C. for 72 hours.
This is an internationally recognised standard method for qualitatively assessing the antimicrobial activity of a compound.
(§3) A sterile paper disc was impregnated with a sample of the test compound in a suitable solvent and 30 minutes allowed for the solvents to evaporate (where possible). The disc was then placed on an agar plate onto which the test micro-organism had been inoculated. The plate was then incubated under the conditions described above, following which it was examined visually for signs of microbial growth. […] The diameter of this zone of ‘inhibition’ was measured using a ProtoCOL™ automated zone sizer (Synbiosis, Cambridge, UK).
(§4) MIC, MBC and DDA assays, as described above, were carried out using as the test compound sodium n-tetradecyl sulphate (STS, ex Sigma Aldrich, UK), dissolved in distilled water. All the experiments were conducted in triplicate. For the DDA experiments, 200 μg of the test compound was loaded onto each disc.
(§5) The MIC/MBC experiments were conducted in triplicate, with the exception of those for SDS and ADS which were conducted in duplicate. The DDAs were performed either in triplicate, in which case standard deviations are quoted in parentheses, or as a single replicate. For the DDA experiments, 200 μg of the test compound was loaded onto each disc.

Experiment [2] has the same test system. The experiment in a line: Minimum Inhibitory Concentration (MIC) assay, broth microdilution. To be noted: P. acnes NCTC 737, Wilkins-Chalgren broth pH 6.0, anaerobic, 37° C., 72 hours. The method, then:
as §1, §2
This is a standard international method for quantitatively assessing the antimicrobial activity of a compound in a liquid medium. […] The culture media were as described above.
The wells were inoculated with a liquid suspension of freshly grown micro-organism and incubated under the conditions described above. After incubation, the microtitre plate was examined visually (with the aid of a light box) for cloudiness in each well, which would indicate microbial growth. The MIC value was recorded as the lowest concentration of test compound required to inhibit microbial growth, ie the lowest concentration for which the liquid in the well remained clear.
The assays included both negative (culture medium with no micro-organisms) and positive (culture medium plus diluting solvent plus micro-organism) controls.
as §4, §5

The test system is the same in experiment [3]. The experiment in a line: Minimum Biocidal (Bactericidal) Concentration (MBC) assay. The note with it: P. acnes NCTC 737; for MBC: sub-culture on antibiotic-free agar after MIC assay. The method, then: as §1, §2
This assay, normally carried out after an MIC assay, determines the minimum concentration of a compound that is lethal to the micro-organism being tested.
These samples were then individually sub-cultured on antibiotic-free agar medium, under the incubation conditions described above. Following incubation they were examined visually for microbial growth.
as §4, §5

For experiment [4] the test system is unchanged. Nature of the experiment: Supplemented Disc Diffusion Assay (agar with salt or lipid). The note with it: P. acnes NCTC 737, 200 μg per disc; for zone of inhibition at 200 µg/disc: Cutibacterium acnes, NCTC737, 72 h. As for the experimental part:
as §1, §2, §3
Performance under these conditions can provide a more reliable indication of activity on topical application.
as §4, §5

Setting [5] is: Cutibacterium acnes, NCTC737, read-out: MIC.
Where [6] appears, read: Cutibacterium acnes, NCTC737, read-out: MBC.
The mark [7] stands for this setting: agar supplemented with sodium chloride (100 mM), read-out: DDA + salt.
Setting [8] is: agar supplemented with triolein at 1% v/v, read-out: DDA + lipid.

Like-named read-outs stand apart in the source and are kept apart here.

Regarding `CCCS(=O)(=O)[O-].O.[Na+]` [Sodium 1-propanesulphate monohydrate, sodium 1-propanesulphate monohydrate], in experiment [1], the “DDA (diameter of zone of inhibition)” value is 0.00 mm. The compound also came in with an MIC in experiment [2] of more than 250 µg/mL. The MBC in experiment [3] is more than 250 µg/mL. For the same compound, the “DDA + salt” value in experiment [4] (agar supplemented with sodium chloride (100 mM)) is listed as 0.00 mm. For the same compound, the “DDA + lipid” value in experiment [4] (agar supplemented with triolein at 1% v/v) was 0.00 mm.

In the case of `CCCCCCCCCCCCOS(=O)(=O)[O-].[Li+]` [Lithium dodecyl sulphate, lithium dodecyl sulphate], the zone of inhibition at 200 µg/disc in experiment [1] came to 30 mm; in experiment [4] (setting [7]), 30.5 mm; in experiment [4] (setting [8]), 30.2 mm. The MIC in experiment [2] (setting [5]) is 15.6 µg/mL. Moreover, the MBC in experiment [3] (setting [6]) turned out to be 15.6 µg/mL. In addition, the MIC/MBC ratio in experiment [3] is recorded as 1.

In the case of `CCCCCS(=O)(=O)[O-].[Na+]` [Sodium pentane sulphonate, sodium pentane sulphonate], the zone of inhibition at 200 µg/disc in experiment [1], in experiment [4] (setting [7]) and in experiment [4] (setting [8]) was 0 mm in each case. Moreover, in experiment [2] (setting [5]), the MIC was more than 250 µg/mL. Moreover, in experiment [3] (setting [6]), the minimal bactericidal concentration (MBC) is more than 250 µg/mL.

For `CCCCCCCCOS(=O)(=O)[O-].[Na+]` [Sodium octyl sulphate, sodium octyl sulphate], the zone of inhibition at 200 µg/disc in experiment [1], in experiment [4] (setting [7]) and in experiment [4] (setting [8]) was 0 mm in each case. Further, the MIC in experiment [2] (setting [5]) was more than 250 µg/mL. The MBC in experiment [3] (setting [6]) was more than 250 µg/mL.

On to `CCCCCOS(=O)(=O)[O-].[Na+]` [Sodium n-pentyl sulphate, sodium n-pentyl sulphate], for which the zone of inhibition at 200 µg/disc in experiment [1], in experiment [4] (setting [7]) and in experiment [4] (setting [8]) was 0 mm each time. Moreover, the MIC in experiment [2] (setting [5]) was more than 250 µg/mL. Besides, in experiment [3] (setting [6]), the MBC is more than 250 µg/mL.

With `CCCCCCCCCCCCCCCCCCOS(=O)(=O)[O-].[Na+]` [Sodium octadecyl sulphate, sodium octadecyl sulphate], the results for the zone of inhibition at 200 µg/disc in experiment [1], in experiment [4] (setting [7]) and in experiment [4] (setting [8]) were 9.41 mm, 9.3 mm and 9.92 mm, respectively. Further, in experiment [2] (setting [5]), the MIC came to 1.95 µg/mL. Moreover, the MBC in experiment [3] (setting [6]) came out at 62.5 µg/mL. Also, the MIC/MBC ratio in experiment [3] was 0.03.

As for `CCCCCCCCCCCCCCCS(=O)(=O)O.[Na]` [Sodium 1-pentadecane sulphonic acid, sodium 1-pentadecane sulphonic acid], the zone of inhibition at 200 µg/disc in experiment [1] was found to be 11.8 mm; in experiment [4] (setting [7]) it was 12.1 mm; in experiment [4] (setting [8]), 0 mm. Moreover, the MIC in experiment [2] (setting [5]) worked out at 0.98 µg/mL. Also, the MBC in experiment [3] (setting [6]) is 3.9 µg/mL. Also, the MIC/MBC ratio in experiment [3] turned out to be 0.25.

Take `CCCCCCCCCCCCCCCCS(=O)(=O)[O-].[Na+]` [Sodium 1-hexadecane sulphonate, sodium 1-hexadecane sulphonate]: the zone of inhibition at 200 µg/disc in experiment [1], in experiment [4] (setting [7]) and in experiment [4] (setting [8]) was 0 mm in each case. Moreover, in experiment [2] (setting [5]), the MIC is 1.95 µg/mL. Moreover, the MBC in experiment [3] (setting [6]) came out at 3.9 µg/mL. Also, the MIC/MBC ratio in experiment [3] amounted to 0.5.

For `CCCCCCCCCS(=O)(=O)[O-].[Na+]` [Sodium 1-nonanesulphonate, sodium 1-nonanesulphonate], the zone of inhibition at 200 µg/disc in experiment [1], in experiment [4] (setting [7]) and in experiment [4] (setting [8]) was 0 mm each time. Further, in experiment [2] (setting [5]), the MIC was more than 250 µg/mL. In experiment [3] (setting [6]), the MBC is more than 250 µg/mL.

As to `CCCCCCCCCCCCOS(=O)(=O)[O-].[Na+]` [Sodium dodecyl sulphate (SDS), sodium dodecyl sulphate], the zone of inhibition at 200 µg/disc in experiment [1] turned out to be 30.7 mm; in experiment [4] (setting [7]), 28.2 mm; in experiment [4] (setting [8]), 28.2 mm. Moreover, in experiment [2] (setting [5]), the MIC is 31.2 µg/mL. The MBC in experiment [3] (setting [6]) worked out at 62.5 µg/mL. The MIC/MBC ratio in experiment [3] worked out at 0.5.
